Where two headings read alike, the source gives them in different places.
Legend:
Type in all cases: cell-based
[1] = system: Enterobacter cloacae (ECL) isolates; assay: MIC of compounds alone and combined with antibacterials, broth microdilution (CLSI); details: Enterobacter cloacae, read-out: MIC
Procedure: (§1) Method 2: MIC of Compounds Alone and Combined with Antibacterials Against Bacterial Isolates
(§2) Compounds of the present invention were assessed against genotyped bacterial strains (Table 3, 4) alone or in combination with an antibacterial (Table 2). […] Log phase bacterial suspensions were adjusted to a final density of 5.10^5 CFU/mL in cation-adjusted Mueller-Hinton broth (ca-MHB; Becton-Dickinson and Company) and added to each well (98 μL). Microplates were incubated for 16-20 h at 35° C. in ambient air. The MIC of the compounds was defined as the lowest concentration of said compounds that prevented bacterial growth as read by visual inspection. The MIC of ATB at each compound concentration was defined as the lowest concentration of ATB that prevented bacterial growth as read by visual inspection.

[2] = system: Klebsiella oxytoca (KOX) isolates; assay: as above; details: Klebsiella oxytoca, alone, read-out: MIC
Procedure: as §1, §2

[3] = system: Morganella morganii (MMO) isolates; assay: as above; details: Morganella morganii, read-out: MIC
Procedure: as §1, §2

[4] = system: Proteus mirabilis (PMI) isolates; assay: microbe, parasite or virus in culture; details: Proteus mirabilis, read-out: MIC
Procedure: as §1, §2

[5] = system: Providencia stuartii (PST) isolates; assay: MIC of compounds alone and combined with antibacterials, broth microdilution (CLSI); details: Providencia stuartii, read-out: MIC
Procedure: as §1
(§3) Compounds of the present invention were assessed against genotyped bacterial strains (Table 3, 4) alone or in combination with an antibacterial (Table 2). […]. Briefly, compounds alone according to the invention were prepared in DMSO and spotted (2 μL each) on sterile polystyrene plates (Corning, 3788). Combinations of compounds and antibiotics dilutions were prepared in DMSO and spotted (1 μL each) on sterile polystyrene plates (Corning, 3788). Log phase bacterial suspensions were adjusted to a final density of 5.10^5 CFU/mL in cation-adjusted Mueller-Hinton broth (ca-MHB; Becton-Dickinson and Company) and added to each well (98 μL). Microplates were incubated for 16-20 h at 35° C. in ambient air. The MIC of the compounds was defined as the lowest concentration of said compounds that prevented bacterial growth as read by visual inspection. The MIC of ATB at each compound concentration was defined as the lowest concentration of ATB that prevented bacterial growth as read by visual inspection.

[6] = system: Salmonella typhimurium (STY) isolates; assay: as above; details: Salmonella enterica, TYPHIMURIUM; STY S3371; alone; read-out: MIC
Procedure: as §1, §3

[7] = strain ECL UFR192, compound alone
[8] = strain ECL UFR193, compound alone
[9] = strain ECL UFR194, compound alone
[10] = strain ECL UFR195, compound alone
[11] = strain ECL UFR196, compound alone
[12] = strain ECL UFR197, compound alone
[13] = strain ECL UFR198, compound alone
[14] = strain ECL UFR203, compound alone
[15] = strain ECL UFR214, compound alone
[16] = strain ECL UFR252PT, compound alone
[17] = strain MMO UFR145, compound alone
[18] = strain PMI UFR132, compound alone
[19] = strain PST UFR98, compound alone

Question: O=C1N2CC(c3ncco3)=CC(C2)N1OC(F)(F)C(=O)[O-].[Li+] (centres unmarked) [AF2] was tested. Which MIC ([1]; ECL 190408, alone) did it give?
Answer: 4 µg/mL

Question: And the MIC ([1]; ECL HAN, alone)?
Answer: 32 µg/mL

Question: What about the MIC ([1]; ECL NEM146383, alone) of the same compound?
Answer: 32 µg/mL

Question: What about the MIC ([1]; ECL P99, alone) of the same compound?
Answer: 8 µg/mL

Question: What about the MIC ([1]; ECL UFR12, alone) of the same compound?
Answer: 16 µg/mL

Question: What about the MIC ([1]; ECL UFR13, alone) of the same compound?
Answer: 16 µg/mL

Question: And the MIC ([1]; ECL UFR14, alone)?
Answer: 16 µg/mL

Question: And the MIC ([1]; ECL UFR38, alone)?
Answer: 8 µg/mL

Question: What about the MIC ([1]; ECL UFR51, alone) of the same compound?
Answer: 8 µg/mL

Question: What about the MIC ([1]; ECL UFR60, alone) of the same compound?
Answer: 16 µg/mL

Question: And the MIC ([1]; ECL UFR70, alone)?
Answer: 8 µg/mL

Question: What about the MIC ([1]; ECL UFR84, alone) of the same compound?
Answer: 32 µg/mL

Question: What about the MIC ([1]; ECL UFR85, alone) of the same compound?
Answer: 8 µg/mL

Question: What about the MIC ([1]; ECL UFR200, alone) of the same compound?
Answer: 32 µg/mL

Question: And the MIC [1, 7]?
Answer: 16 µg/mL

Question: What about the MIC [1, 8] of the same compound?
Answer: 16 µg/mL

Question: And the MIC [1, 9]?
Answer: 8 µg/mL

Question: What about the MIC [1, 10] of the same compound?
Answer: 16 µg/mL

Question: And the MIC [1, 11]?
Answer: 16 µg/mL

Question: And the MIC [1, 12]?
Answer: 8 µg/mL

Question: And the MIC [1, 13]?
Answer: 32 µg/mL

Question: And the MIC [1, 14]?
Answer: 32 µg/mL

Question: What about the MIC [1, 15] of the same compound?
Answer: 32 µg/mL

Question: And the MIC [1, 16]?
Answer: > 32 µg/mL

Question: And the MIC ([2]; KOX UFR21)?
Answer: 16 µg/mL

Question: And the MIC ([2]; KOX UFR173)?
Answer: 16 µg/mL

Question: What about the MIC ([2]; KOX UFR223) of the same compound?
Answer: 8 µg/mL

Question: What about the MIC ([2]; KOX UFR224) of the same compound?
Answer: 8 µg/mL

Question: And the MIC ([3]; MMO 200321, alone)?
Answer: 32 µg/mL

Question: And the MIC ([3]; MMO UFR144, alone)?
Answer: > 32 µg/mL

Question: What about the MIC ([3]; MMO UFR240, alone) of the same compound?
Answer: > 32 µg/mL

Question: And the MIC ([3]; MMO UFR241, alone)?
Answer: > 32 µg/mL

Question: And the MIC ([3]; MMO UFR242, alone)?
Answer: > 32 µg/mL

Question: What about the MIC ([3]; MMO UFR243, alone) of the same compound?
Answer: > 32 µg/mL

Question: What about the MIC ([3]; MMO UFR244, alone) of the same compound?
Answer: > 32 µg/mL

Question: What about the MIC ([3]; MMO UFR245, alone) of the same compound?
Answer: > 32 µg/mL

Question: What about the MIC ([3]; MMO UFR246, alone) of the same compound?
Answer: > 32 µg/mL

Question: What about the MIC ([3]; MMO UFR247, alone) of the same compound?
Answer: 32 µg/mL

Question: What about the MIC [3, 17] of the same compound?
Answer: > 32 µg/mL

Question: What about the MIC ([4]; PMI UFR128, alone) of the same compound?
Answer: 8 µg/mL

Question: And the MIC ([4]; PMI UFR129, alone)?
Answer: 4 µg/mL

Question: What about the MIC ([4]; PMI UFR130, alone) of the same compound?
Answer: 4 µg/mL

Question: What about the MIC [4, 18] of the same compound?
Answer: 4 µg/mL

Question: What about the MIC ([5]; PST UFR94, alone) of the same compound?
Answer: 16 µg/mL

Question: And the MIC ([5]; PST UFR95, alone)?
Answer: 32 µg/mL

Question: What about the MIC ([5]; PST UFR120, alone) of the same compound?
Answer: 8 µg/mL

Question: And the MIC ([5]; PST UFR121, alone)?
Answer: 4 µg/mL

Question: And the MIC ([5]; PST UFR122, alone)?
Answer: 4 µg/mL

Question: What about the MIC ([5]; PST UFR123, alone) of the same compound?
Answer: 8 µg/mL

Question: And the MIC ([5]; PST UFR124, alone)?
Answer: 8 µg/mL

Question: What about the MIC ([5]; PST UFR125, alone) of the same compound?
Answer: 8 µg/mL

Question: And the MIC ([5]; PST UFR235, alone)?
Answer: 16 µg/mL

Question: And the MIC [5, 19]?
Answer: 32 µg/mL

Question: What about the MIC [6] of the same compound?
Answer: 8 µg/mL

Question: What does the source list for O=C1N2CC(n3cccn3)=CC(C2)N1OC(F)(F)C(=O)[O-].[Li+] (centres unmarked) [AF3]?
Answer: MIC ([1]; ECL 2185D, alone): 32 µg/mL; MIC ([1]; ECL 190310, alone): 32 µg/mL; MIC ([1]; ECL 190408, alone): 4 µg/mL; MIC ([1]; ECL 200138, alone): 16 µg/mL; MIC ([1]; ECL 200322, alone): 8 µg/mL; MIC ([1]; ECL 260033, alone): 16 µg/mL; MIC ([1]; ECL 260253, alone): 32 µg/mL; MIC ([1]; ECL 260323, alone): 16 µg/mL; MIC ([1]; ECL 260508, alone): 8 µg/mL; MIC ([1]; ECL HAN, alone): 32 µg/mL; MIC ([1]; ECL NEM146383, alone): 16 µg/mL; MIC ([1]; ECL P99, alone): 16 µg/mL; MIC ([1]; ECL UFR12, alone): 8 µg/mL; MIC ([1]; ECL UFR13, alone): 32 µg/mL; MIC ([1]; ECL UFR14, alone): 32 µg/mL; MIC ([1]; ECL UFR38, alone): 8 µg/mL; MIC ([1]; ECL UFR51, alone): 8 µg/mL; MIC ([1]; ECL UFR60, alone): 16 µg/mL; MIC ([1]; ECL UFR70, alone): 8 µg/mL; MIC ([1]; ECL UFR84, alone): 32 µg/mL; MIC ([1]; ECL UFR85, alone): 16 µg/mL; MIC ([1]; ECL UFR200, alone): 16 µg/mL; MIC [1, 7]: 32 µg/mL; MIC [1, 8]: 16 µg/mL; MIC [1, 9]: 16 µg/mL; MIC [1, 10]: 16 µg/mL; MIC [1, 11]: 16 µg/mL; MIC [1, 12]: 16 µg/mL; MIC [1, 13]: 32 µg/mL; MIC [1, 14]: 32 µg/mL; MIC [1, 15]: > 32 µg/mL; MIC [1, 16]: > 32 µg/mL; MIC ([2]; KOX UFR21): > 32 µg/mL; MIC ([2]; KOX UFR173): 16 µg/mL; MIC ([2]; KOX UFR223): 8 µg/mL; MIC ([2]; KOX UFR224): 8 µg/mL; MIC ([3]; MMO 200321, alone): 32 µg/mL; MIC ([3]; MMO UFR144, alone): 32 µg/mL; MIC ([3]; MMO UFR240, alone): > 32 µg/mL; MIC ([3]; MMO UFR241, alone): 32 µg/mL; MIC ([3]; MMO UFR242, alone): 32 µg/mL; MIC ([3]; MMO UFR243, alone): > 32 µg/mL; MIC ([3]; MMO UFR244, alone): > 32 µg/mL; MIC ([3]; MMO UFR245, alone): 32 µg/mL; MIC ([3]; MMO UFR246, alone): 32 µg/mL; MIC ([3]; MMO UFR247, alone): 16 µg/mL; MIC [3, 17]: > 32 µg/mL; MIC ([4]; PMI UFR82, alone): 4 µg/mL; MIC ([4]; PMI UFR126, alone): 4 µg/mL; MIC ([4]; PMI UFR127, alone): 8 µg/mL; MIC ([4]; PMI UFR128, alone): 4 µg/mL; MIC ([4]; PMI UFR129, alone): 4 µg/mL; MIC ([4]; PMI UFR130, alone): 4 µg/mL; MIC ([4]; PMI UFR133, alone): 4 µg/mL; MIC ([4]; PMI UFR237, alone): 8 µg/mL; MIC ([4]; strain PMI UFR131, compound alone): 4 µg/mL; MIC [4, 18]: 8 µg/mL; MIC ([5]; PST UFR94, alone): 16 µg/mL; MIC ([5]; PST UFR95, alone): > 32 µg/mL; MIC ([5]; PST UFR120, alone): 8 µg/mL; MIC ([5]; PST UFR121, alone): 8 µg/mL; MIC ([5]; PST UFR122, alone): 4 µg/mL; MIC ([5]; PST UFR123, alone): 4 µg/mL; MIC ([5]; PST UFR124, alone): 8 µg/mL; MIC ([5]; PST UFR125, alone): 4 µg/mL; MIC ([5]; PST UFR235, alone): 16 µg/mL; MIC [5, 19]: 16 µg/mL; MIC [6]: 8 µg/mL
